Test results taken from a melting point compilation (Tetko et al.; mined from patent text by program, amines drawn as free bases though some values may be those of a salt).

SMILES | melting point
O=C(O)c1ccccc1CNC(=O)C1Cc2ccccc2N1S(=O)(=O)c1ccc(-c2cccc(C(F)(F)F)c2)cc1 (stereo unspecified) | 118 °C
COc1cc2cn[nH]c(=O)c2cc1OC | 254 to 256 °C
CN1CCN(C(=O)/C=C/CSc2nc(N)cc(Cl)n2)CC1 | 155 to 156 °C
NC(=S)CCCc1ccc(Br)cc1 | 104 to 105 °C
COc1ccc(C(=O)Cc2c(Cl)cncc2Cl)c2c1OC1(CCCC1)O2 | 110 to 112 °C
CC(C)(Oc1ccc(C2CCOCC2)cc1Cl)C(=O)O | 141 °C
O=C(Cc1ccccc1)N1CC2COCC2C1 (stereo unspecified) | 47.5 to 48.5 °C
O=C(OC1CCc2c(c3ccccc3n2Cc2ccc(Cl)cc2)C1)c1ccccc1 (stereo unspecified) | 150 to 152 °C
N#Cc1c(Cl)csc1NC=O | 241 °C
O=C(O)CCNc1ccccc1CNC(=O)C1Cc2ccccc2N1S(=O)(=O)c1ccc(-c2cccc(C(F)(F)F)c2)cc1 (stereo unspecified) | 94 °C
CNCC1Cc2cc(-c3ccccc3)cc(-c3ccccc3OC)c2O1 (stereo unspecified) | 140 to 143 °C
Nc1ncccc1-c1nc2cc(Br)cnc2n1-c1ccc(CNC(=O)c2ccccc2)cc1 | 195 to 197 °C
CC1=NC(NC(=O)Nc2cccc(C)c2)C(=O)N(CC(=O)N2CCCCCC2)c2c(C)cccc21 (stereo unspecified) | 204 °C
Clc1ccc(CN2CCN=C2C(Cn2ccnc2)c2ccccc2)c(Cl)c1 (stereo unspecified) | 120 to 135 °C
CC(CCC(=O)C(C)(C)O)C1CCC2C3=CC=C4CC(O)CCC4(C)C3CCC21C (stereo unspecified) | 150 to 152 °C
Cc1cc(Sc2ccc3nc(CCl)n(C)c3n2)cc(C)c1[N+](=O)[O-] | 133 to 135 °C
O=C1COCc2cc(Br)ccc21 | 144 to 146 °C
OCCNCC(O)c1ccccc1 (stereo unspecified) | 96 to 98 °C
O=C(O)c1cnn2c(C(F)F)cc(-c3ccc(C(F)(F)F)c(Cl)c3)nc12 | 216 °C
c1csc(CNCc2ccc(-c3cc4ncnc(Nc5ccc6[nH]ccc6c5)c4s3)cc2)c1 | 111 to 121 °C
COC(=O)c1ccc2cc(-c3ccc(CO)c(C45CC6CC(CC(C6)C4)C5)c3)ccc2c1 | 212 °C
CC(C)N(C[C@H](O)[C@H](Cc1ccccc1)NC(=O)OCc1ccccc1)NC(=O)OC(C)(C)C | 114 to 115 °C
CC(C)c1cccc(C(C)C)c1NC(=O)CN1CCN(CCSc2nc3cccc(S(C)=O)c3o2)CC1 (stereo unspecified) | 119 to 120 °C
O=C(O)Cn1c(-c2ccc(Br)o2)nc2cccnc21 | 229 to 231 °C

SMILES | melting point
Cc1cc(C)c([N+](=O)[O-])cc1NC(=O)CC#N | 229 to 230 °C
CC1(C)C=Cc2c(ccc3c2C=CC(=O)C3=O)O1 | 189 to 193 °C
CS(=O)(=O)c1ccc(C(=O)N[C@H]2CC[C@H](CCN3CCC(c4cccc5c4CCO5)CC3)CC2)cc1 | 236 °C
Fc1ccc(Nc2nc(N/N=C/c3cccc4ccccc34)nc(N3CCOCC3)n2)cc1 | 220 °C
CC1=C(C(=O)O)C(c2ccccc2Cl)C(c2cccs2)=NN1 (stereo unspecified) | 188 °C
CSc1ccc(-c2coc3ncc(-c4nnc(C)o4)cc23)cc1 | 209 to 210 °C
CCN(CC)C(=O)C(C)Cc1cc(-c2ccccc2)cc2ccccc12 (stereo unspecified) | 70 °C
O=C(NO)[C@H]1CN(c2ccc(N3CCOCC3)c(F)c2)C(=O)O1 | 141 to 143 °C
CON=C1CN(c2c(F)cc3c(=O)c(C(=O)O)cn(C4CC4)c3c2F)CC12CN(C(=O)OC(C)(C)C)C2 | 255 to 256 °C
CCC(O)(c1ccc(OCc2ccccc2)cc1)c1cccc(C(F)(F)F)c1 (stereo unspecified) | 50 to 51 °C
Cc1c(Cl)c(=O)n2c3c(cc(C(O)(C(F)(F)F)C(F)(F)F)cc13)CCC2 | 266 to 268 °C
CCC(c1oc2ccccc2c(=O)c1-c1ccccc1F)n1cnc2c(N)ncnc21 (stereo unspecified) | 160 to 163 °C
CCCNc1ccc(C(=O)O)cc1[N+](=O)[O-] | 208 °C
C#CCN1C(=O)C(=O)N(c2cc(Cl)ccc2C)C1=S | 162 to 164 °C
Cc1ccc(C(=O)C2=C(O)C(=O)N(c3ncc(S(=O)(=O)c4ccc([N+](=O)[O-])cc4)s3)C2c2ccc(C(=O)N(C)C)cc2)cc1 (stereo unspecified) | 205 °C
COC(OC)(c1ccncc1)C(NC(=O)NCCCc1ccccc1)c1ccc(F)cc1 (stereo unspecified) | 162 to 166 °C
COc1ccccc1NC(C#N)c1c(Cl)cccc1Cl (stereo unspecified) | 118 °C
CCc1cc(-c2ccc(F)cc2)c(O)cc1OC(CC)Oc1cc(NC(=O)CCCC(=O)N2CCOCC2)ccc1CCC(=O)O (stereo unspecified) | 78 to 80 °C
O=C(/C=C/c1ccccc1)NCCC1CCN(Cc2ccccc2)CC1 | 125 to 127 °C
COCc1ccc(Cl)cc1C(=O)OC | 44 to 45 °C
COC(=O)c1ccccc1NC(=O)OCC1CCN(CCNS(C)(=O)=O)CC1 | 106 to 108 °C
CCN1CCc2nc(Nc3cc(-c4cc(F)cc(C5NCCc6c5sc5c6CC(C)(C)C5)c4CO)cn(C)c3=O)ccc2C1 (stereo unspecified) | 134 to 135 °C
c1ccc2cc(Cc3ccncc3)ccc2c1 | 66 to 67 °C
CN(CC(=O)C(Cc1cccnc1)NC(=O)c1ccccc1)C(=O)N1CCCC1C(=O)O (stereo unspecified) | 92 to 120 °C

SMILES | melting point
CS(=O)C(c1ccc(Cl)cc1)c1ccc(Cl)cc1 (stereo unspecified) | 110 °C
c1cc(-n2cccc2)cc(-n2cnc3cc(-c4ccco4)ccc32)c1 | 137 to 139 °C
O=C1Cc2ccccc2Oc2ccc(CC(O)(P(=O)(O)O)P(=O)(O)O)cc21 | 228 °C
Brc1ccc(Nc2ncc(-c3ccccc3)s2)nc1 | > 220 °C
CN(Cc1ccc([N+](=O)[O-])cc1)Cc1nc(-c2cc(C(C)(C)C)c(O)c(C(C)(C)C)c2)cs1 | 111 to 112 °C
CCOC(C(=O)O)N1CCN2c3ccccc3Cc3ccccc3C2C1 (stereo unspecified) | 105 to 108 °C
O=c1[nH]c2c(n1-c1ccccc1)CCCC2 | 220 °C
Nc1nc2c(c(=O)[nH]1)n(Cc1ccccc1)c(=O)n2C1OC(CO)C(O)C1O (stereo unspecified) | 175 °C
CC(C)CNCC(O)c1cc(C(F)(F)F)nc2c(C(F)(F)F)cccc12 (stereo unspecified) | 132 °C
O=C(O)c1cn(C2CC2)c2c(F)c(N3CCC(n4cnnn4)C3)c(F)cc2c1=O (stereo unspecified) | 268 to 270 °C
Fc1ccccc1N1CCN(c2ccc(Cl)nn2)CC1 | 148 °C
CN(C)C1(Cc2ccccc2)CCC(O)(c2csc3ccccc23)CC1 (stereo unspecified) | 158 to 160 °C
CCCCc1nc2c(N)nc3ccc(OCC(=O)N4CCOCC4)cc3c2n1C | 257 °C
CC(C)N1CCC(C2=C(C#N)C(c3cccc4nonc34)c3c[nH]nc3N2)CC1 (stereo unspecified) | 260 °C
Nc1nc(Nc2ccc(S(N)(=O)=O)cc2)sc1C(=O)c1c(F)cccc1F | 258 to 260 °C
CNC(=O)[C@@H](NC(=O)[C@@H](CC(C)C)C(C(=O)O)C(=O)O)C(C)(C)C | 101 °C
Cc1ccc2c(n1)[nH]c1ccc(C(=O)c3ccccc3)cc12 | 231 °C
CCOC(=O)COc1c(F)cc(S(=O)CCNS(=O)(=O)c2ccc(Cl)cc2)cc1F (stereo unspecified) | 137 to 138 °C
N#CC(N)=C(C#N)N=C1c2ccccc2-c2ccccc21 | 156 to 157 °C
CCOC(=O)C(C#N)C(=O)c1ccc[nH]1 (stereo unspecified) | 138 to 139 °C
CCCCOc1c(CNC(=O)OC(C)(C)C)n(CC(C)C)c(=O)c2ccc(-c3ccccc3)cc12 | 155 to 159 °C
NC(=O)C(Nc1cccc2c1C(=O)CO2)c1c(Cl)cccc1Cl (stereo unspecified) | 245 °C
NC(=S)Nc1ccc(C2=NNC(=O)Cc3cc4c(cc32)OCO4)cc1 | 236 to 238 °C
CCOC(=O)[C@H](Cc1ccc(-c2c(OC)cc(COS(C)(=O)=O)cc2OC)cc1)NC(=O)c1c(F)cccc1F | 125 to 126 °C

SMILES | melting point
CC(=O)ON(C)C(=O)CCc1cc(-c2ccc(Cl)cc2)n(-c2nc3c(Cl)cccc3s2)n1 | 159 to 160 °C
O=[N+]([O-])c1ccc(CN2CCC(O)CC2)cc1 | 114 to 115 °C
Cc1nc2c(N)nc3ccccc3c2n1CCOCCN1CCCS1(=O)=O | 186 to 187 °C
COCc1nc2c(C(F)(F)F)cccc2c(=O)o1 | 104 to 106 °C
COC(=O)[C@@H](N=[N+]=[N-])[C@@H](O)c1ccccc1 | 40 to 41 °C
CN1CN(C(=O)c2c(F)cccc2F)C(=O)N(c2ccc(SC(F)(F)F)cc2F)C1 | 92 to 94 °C
C=C1c2c(C)c(N3CCN(c4ccc(OC)cc4)CC3)c(C)c(C)c2OC1(C)C | 134 to 136 °C
O=S(=O)(Nc1cccnc1Nc1ccccc1)c1ccc(Cl)cc1 | 186 to 188 °C
Nc1c(Cl)cc(C(O)CNCCCCCCOCCCCCCc2cnccn2)cc1Cl (stereo unspecified) | 60 to 63 °C
CC1CCN(c2c(F)c(N)c3c(=O)c(C(=O)O)cn(C4CC4)c3c2F)CC(C)(C)C1 (stereo unspecified) | 148 to 150 °C
CCCNc1nc(NCc2ccc(NC(=O)c3ccc(F)cc3)cc2)c2ccc(C)cc2n1 | 170 to 174 °C
N#Cc1cnn(-c2c(Cl)cc(C(F)(F)F)cc2Cl)c1N | 165 to 167 °C
O=C(Nc1ccc(F)cc1F)C1c2ccccc2COc2ccc(Br)cc21 (stereo unspecified) | 189 to 191 °C
CCCCc1nc(Cl)c(CC(=O)O)n1Cc1ccc(OCc2ccccc2C(=O)O)cc1 | 170 to 172 °C
CC(C)(O)COc1c(-c2ccc(S(C)(=O)=O)cc2)cnn(-c2ccc(F)c(Cl)c2)c1=O | 122 to 124 °C
CC(C)(Oc1ccc(CCC(O)c2ccc(-c3ccc(C(F)(F)F)cc3)s2)c(Cl)c1Cl)C(=O)O (stereo unspecified) | 54 to 56 °C
CCCCCCCc1ccc(C(=O)Cc2ccccc2C(=O)O)cc1 | 128 to 131 °C
Cc1cccc2nc3n(c(=O)c12)-c1ccccc1C3=O | 304 to 307 °C
CCOC(=O)N1CC2CC1CN2Cc1ccccc1 (stereo unspecified) | 124 to 128 °C
Cc1ccc(Cn2c3c(c4cc(OCc5ccccc5)ccc42)C(=O)C(=O)OC3)cc1 | 206 to 207 °C
O=C(O)C1=Cc2cc(Cl)c(Oc3ccccc3Cl)cc2OC1C(F)(F)F (stereo unspecified) | 199 °C
CCC(=O)Cc1ccc(C(=O)Nc2ccc3cc(C(C)N4CCCC4)cnc3c2C)cc1 (stereo unspecified) | 123 to 127 °C
CCCCCCCCCCCCCCCCCC(=O)OC1CC(C)(C)N(OC(=O)CCCCCCCCCCCCCCCCC)C(C)(C)C1 | 62 to 65 °C
Cc1cc(C)c(C#N)c(-c2ccc(F)c(C)c2)c1 | 98 to 100 °C
